{"source": "paper PMC6943527", "about": "“Are the Hydantoin-1,3,5-triazine 5-HT6R Ligands a Hope to a Find New Procognitive and Anti-Obesity Drug? Considerations Based on Primary In Vivo Assays and ADME-Tox Profile In Vitro” (Molecules, 2019)", "key": {"[1]": {"parameters": "method as in PMID 30282913", "conditions": "\"conditional\" anxiety-like assay; cited from earlier work"}, "[2]": {"parameters": "method as in PMID 30530073", "conditions": "QikProp, Schrödinger Suite; cited from earlier work"}, "[3]": {"parameters": "method as in PMID 30282913", "conditions": "overeating model, vs control group; cited from earlier work"}, "[4]": {"system": "human embryonic kidney (HEK)-293 cells", "parameters": "method as in PMID 30282913", "conditions": "highest concentration 100 µM; cited from earlier work"}, "[5]": {"parameters": "method as in PMID 30282913", "conditions": "cited from earlier work"}, "5-HT2A": {"biological_target": "5-HT2A", "parameters": "method as in PMID 30282913", "conditions": "radioligand binding, average of at least two independent experiments; read-out: Ki 5-HT2A [3H]-Ketanserin; cited from earlier work"}, "[6]": {"assay": "Food and water intake, rats fed standard diet only", "format": "in vivo, male Wistar rats", "conditions": "5 mg/kg b.w. i.p., vs control group", "experimental": "The experiments were carried out on male Wistar rats. Their initial body weight was 210–230 g. The animals were housed in pairs in plastic cages in constant temperature facilities exposed to a light–dark cycle; water and food were available ad libitum. The control and experimental groups consisted of eight animals each. All experiments were conducted according to the guidelines of the Animal Use and Care Committee of the Jagiellonian University and were approved for realization (2013 and 2015, Poland; Permissions No 136/2013 and 258/2015).\nThe standard diet contained 100 g of feed—280 kcal.\nMale Wistar rats (190–220 g) were housed in pair. The control group (standard diet + vehicle) received vehicle (1% Tween 80, i.p.), while the test group (standard diet + KMP-10 5 mg) was intraperitoneally injected with KMP-10 at the dose 5 mg/kg b.w./day dissolved in 1% Tween 80. The intakes of food and water were evaluated daily."}, "hepatoma HepG2 cell line": {"system": "hepatoma HepG2 cell line", "assay": "Hepatotoxicity assay, HepG2 cell viability", "format": "cell-based", "conditions": "HepG2, 0.1-100 µM, 72 h", "experimental": "The cell-based assays were used to investigate safety of the 5-HT6R ligands. […] During the same study, no effect for KMP-10 was observed. Additional safety tests with the hepatoma HepG2 cell line were performed here to estimate the compounds’ hepatotoxicity. A slight antiproliferative effect was observed only for DJ-18 at 100 µM, where the cell viability was decreased to up to ~83% of the control (Figure 9a).\nHepatotoxicity was estimated using the hepatoma HepG2 (ATCC® HB-8065^TM) cell line according to previously described protocols. The CellTiter 96® AQueous Non-Radioactive Cell Proliferation Assay was obtained from Promega (Madison, WI, USA). The compounds were investigated in quadruplicate at four concentrations (0.1–100 µM) for 72h. The antiproliferative drug DX was used as a positive control at a dose of 1 µM."}, "[7]": {"assay": "Elevated plus-maze (EPM) test", "format": "in vivo, male Wistar rats", "conditions": "for Total distance / X Ambulation / Y Ambulation: mean ± SEM", "experimental": "The experiments were performed on male Wistar rats (200–220 g) obtained from an accredited animal facility at the Jagiellonian University Medical College, Poland. The animals were housed in group of four in controlled environment (ambient temperature 21 ± 2 °C; relative humidity 50%–60%; 12-h light/dark cycles (lights on at 8:00). Standard laboratory food (LSM-B) and filtered water were freely available. Animals were randomly assigned to treatment groups. All the experiments were performed by two observers unaware of the studied treatment between 9:00 and 14:00 on separate groups of animals. All animals were used only once. Procedures involving animals and their care were conducted in accordance with current European Community and Polish legislation on animal experimentation. Additionally, all efforts were made to minimize animal suffering and to use only the number of animals necessary to produce reliable scientific data. The experimental protocols and procedures described in this manuscript were approved by the I Local Ethics Commission in Cracow (no 200/2018), complied with the European Communities Council Directive of 24 November 1986 (86/609/EEC), and were in accordance with the 1996 National Institutes of Health Guide for the Care and Use of Laboratory Animals.\nAll compounds were suspended in 1% Tween 80 immediately before administration in a volume of 2 mL/kg. Compounds were intraperitoneally administered 60 min before testing. Control animals received vehicle (1% Tween 80) according to the same schedule.\nThe testing procedure was based on a method described by. The plus-maze apparatus (an automated device produced by Campden Instruments Ltd. (United Kingdom) was made of durable, high density, non-porous black plastic, elevated to a height of 50 cm, and consisted of two open arms (50 × 10 cm) and two closed arms (50 × 10 cm, and 30 cm high walls) arranged so that the two arms of each type were opposite each other. The floor of the plus-maze was made of infrared transparent material, which means that there were no visible sensors. The plus-maze apparatus was connected to PC software by a control chassis. The experiments were conducted in a darkened room, and only the center of the maze was illuminated with low-intensity light (30 lux measured on the maze level). Each rat was gently placed in the center of the plus-maze, facing one of the closed arms, immediately after a 5-min adaptation period in a plastic black box (60 × 60 × 35 cm), to increase the overall activity in the EPM. During a 5-min test period, an automated motor monitor system recorded the number of entries into the closed and open arms and the time spent in either type of arm. The device counted an effective arm-entry when the four paws of a rat were into any arm. The maze was thoroughly cleaned after each trial. The EPM test is an “unconditional” anxiety-like test based on rodents’ natural aversion to heights and open space.\nThe experiment was performed using an EPM apparatus (details see above). Total ambulation (the total distance covered by a rat and ambulation along the X and Y axes) was taken into account to discern drug effects on general activity from those on open-arm exploration during a 5-min test period (i.e., the time equal to the observation period in the EPM test). Rats’ behavior was not videotaped during the test."}, "5-HT1A": {"biological_target": "5-HT1A", "parameters": "method as in PMID 30282913", "conditions": "radioligand binding, average of at least two independent experiments; read-out: Ki 5-HT1A [3H]-8-OH-DPAT; cited from earlier work"}, "[8]": {"conditions": "0.3 mg/kg i.p., 60 min before test, 5-min session"}, "[9]": {"conditions": "1 mg/kg i.p., 60 min before test, 5-min session"}, "[10]": {"conditions": "3 mg/kg i.p., 60 min before test, 5-min session"}}, "data": [{"compound": "CN1CCN(c2nc(N)nc(CN3C(=O)NC(C)(c4ccc5ccccc5c4)C3=O)n2)CC1", "note": "(stereo not drawn) [KMP-10, 3-((4-amino-6-(4-methylpiperazin-1-yl)-1,3,5-triazin-2-yl)methyl)-5-methyl-5-(naphthalen-2-yl)imidazolidine-2,4-dione]", "values": [{"measurement": "Anxiolytic-like effects in Vogel-conflict test", "setting": "[1]", "value": "confirmed"}, {"measurement": "QPlogBB", "setting": "[2]", "value": "−0.92"}, {"measurement": "Increase of body mass", "setting": "[3]", "value": "significantly lower increase"}, {"measurement": "HEK-293 cells viability", "setting": "[4]", "value": "no effect"}, {"measurement": "Antidepressive-like properties in the Porsolt model", "setting": "[5]", "value": "antidepressive-like properties"}, {"measurement": "Ki", "setting": "5-HT2A", "value": 17.2, "unit": "µM"}, {"measurement": "Amount of calories consumed", "setting": "[6]", "value": "significantly reduced"}, {"measurement": "Water intake", "setting": "[6]", "value": "significantly lower"}, {"measurement": "Hepatotoxic character", "setting": "hepatoma HepG2 cell line", "value": "did not show any hepatotoxic character"}, {"measurement": "Total distance", "setting": "[7]; [8]", "value": "3240 ± 209", "unit": "cm"}, {"measurement": "X Ambulation", "setting": "[7]; [8]", "value": "116 ± 18"}, {"measurement": "Y Ambulation", "setting": "[7]; [8]", "value": "98 ± 20"}, {"measurement": "Total distance", "setting": "[7]; [9]", "value": "4558 ± 205", "unit": "cm"}, {"measurement": "X Ambulation", "setting": "[7]; [9]", "value": "152 ± 17"}, {"measurement": "Y Ambulation", "setting": "[7]; [9]", "value": "63 ± 12"}, {"measurement": "Total distance", "setting": "[7]; [10]", "value": "3881 ± 298", "unit": "cm"}, {"measurement": "X Ambulation", "setting": "[7]; [10]", "value": "131 ± 18"}, {"measurement": "Y Ambulation", "setting": "[7]; [10]", "value": "133 ± 25"}, {"measurement": "Anxiolytic-like activity in EPM test", "setting": "[7]; rats, doses of 1 and 3 mg/kg i.p., 60 min before test", "value": "showed anxiolytic-like activity"}, {"measurement": "Locomotor activity in EPM test", "setting": "[7]; rats, i.p.", "value": "no changes"}, {"measurement": "Percentage of time spent in the open arms", "setting": "[7]; rats, i.p., 5-min session, ANOVA F(3,22) = 15.774, p < 0.0001", "value": "increased"}, {"measurement": "Time spent in the open arms", "setting": "[7]; rats, i.p., 5-min session, ANOVA F(3,22) = 17.100, p < 0.0001", "value": "increased"}, {"measurement": "Distance travelled in the open arms", "setting": "[7]; rats, i.p., 5-min session, ANOVA p < 0.01", "value": "increased"}, {"measurement": "Ki", "setting": "5-HT1A", "value": 14.2, "unit": "µM"}]}]}
